Laboratory results: patent publication US6403647B1, “Pulsed administration of compositions for the treatment of blood disorders” (priority 1996, dated 2002)

Tested on: γ-globin expression
Test: γ-globin mRNA by RNase protection in erythroid cell cultures of normal individuals
Type: cell-based, human
Details: for x increase: over ChFCS
Procedure: Fetal globin production was determined in erythroid progenitor cells cultured in the presence or absence of test compositions. Erythroid cells were purified from blood obtained from a normal individual . […] Erythroid cell cultures were established with the following conditions: IMDM methylcellulose media, erythropoietin (3 U/ml), the human subjects' mononuclear cells, 30% charcoal-absorbed fetal calf serum, and the test compounds at varying micromolar concentrations.
Compounds were tested for their ability to induce expression of fetal globin expression in erythroid cell cultures established from the peripheral blood of normal individuals. Colonies were harvested and assayed for globin mRNA following 14 days of culture. Each compound was tested in duplicate cultures from 2-4 individual human subjects. Globin expression was quantitated by RNase protection assay for % gamma globin as a fraction of total non-alpha globin (% gamma/gamma+beta globin mRNA).

Compound: CCC(=O)NO [propionyl hydroxamate]
- x increase (1 μM, 990709): 1.1 x
- γ/γ + β (1 μM, 990709, subject 99-4): 1.39%
- γ/γ + β (1 μM, 990709, subject 99-5): 2.39%
- γ/γ + β mean (1 μM, 990709, subjects 99-4, 99-5): 1.89%
- x increase (8 μM, 990709): 0.9 x
- γ/γ + β (8 μM, 990709, subject 99-4): 1.19%
- γ/γ + β (8 μM, 990709, subject 99-5): 1.73%
- γ/γ + β mean (8 μM, 990709, subjects 99-4, 99-5): 1.46%
- x increase (10 μM, 990709): 1.5 x
- γ/γ + β (10 μM, 990709, subject 99-4): 1.86%
- γ/γ + β (10 μM, 990709, subject 99-5): 3.28%
- γ/γ + β mean (10 μM, 990709, subjects 99-4, 99-5): 2.57%
- x increase (25 μM, 991208): 1.5 x
- γ/γ + β (25 μM, 991208, subject 00-1): 12.17%
- γ/γ + β (25 μM, 991208, subject 00-3): 12.38%
- γ/γ + β mean (25 μM, 991208, subjects 00-1, 00-3): 12.27%
- x increase (50 μM, 0601-0): 2.5 x
- γ/γ + β (50 μM, 0601-0, subject 00-3): 9.57%
- γ/γ + β mean (50 μM, 0601-0, subject 00-3 only): 9.57%
- x increase (50 μM, 990709): 3.0 x
- γ/γ + β (50 μM, 990709, subject 99-4): 3.80%
- γ/γ + β (50 μM, 990709, subject 99-5): 6.40%
- γ/γ + β mean (50 μM, 990709, subjects 99-4, 99-5): 5.10%
- x increase (50 μM, 991208): 2.5 x
- γ/γ + β (50 μM, 991208, subject 00-1): 20.79%
- γ/γ + β (50 μM, 991208, subject 00-3): 21.30%
- γ/γ + β mean (50 μM, 991208, subjects 00-1, 00-3): 21.05%
- x increase (100 μM, 0601-0): 4.8 x
- γ/γ + β (100 μM, 0601-0, subject 00-3): 16.66%
- γ/γ + β mean (100 μM, 0601-0, subject 00-3 only): 16.66%
- x increase (100 μM, 990709): 4.6 x
- γ/γ + β (100 μM, 990709, subject 99-4): 7.78%
- γ/γ + β (100 μM, 990709, subject 99-5): 8.80%
- γ/γ + β mean (100 μM, 990709, subjects 99-4, 99-5): 7.72%
- x increase (100 μM, 991208): 4.3 x
- γ/γ + β (100 μM, 991208, subject 00-1): 32.74%
- γ/γ + β (100 μM, 991208, subject 00-3): 38.33%
- γ/γ + β mean (100 μM, 991208, subjects 00-1, 00-3): 35.54%
- x increase (125 μM, 991208): 4.7 x
- γ/γ + β (125 μM, 991208, subject 00-1): 37.83%
- γ/γ + β (125 μM, 991208, subject 00-3): 39.14%
- γ/γ + β mean (125 μM, 991208, subjects 00-1, 00-3): 38.49%
- x increase (150 μM, 0601-0): 6.3 x
- γ/γ + β (150 μM, 0601-0, subject 00-3): 24.40%
- γ/γ + β mean (150 μM, 0601-0, subject 00-3 only): 24.40%
- x increase (150 μM, 991208): 6.7 x
- γ/γ + β (150 μM, 991208, subject 00-1): 59.60%
- γ/γ + β (150 μM, 991208, subject 00-3): 51.56%
- γ/γ + β mean (150 μM, 991208, subjects 00-1, 00-3): 55.58%
- fetal (gamma) globin expression, fold over control cultures (5 to 150 micromolar): 1.5-6.7 fold
